The source of these data is PubChem BioAssay (NCI).

Some test systems named below: HCT-15 colon; UACC-62 melanoma; RXF 393 renal; MDA-MB-231 breast; MCF7 breast; OVCAR-8 ovarian; U251 CNS; OVCAR-3 ovarian; CCRF-CEM leukemia; SK-MEL-2 melanoma.
Experiment in all cases: inhibition of tumour cell growth, NCI panel, 48 h

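Protocol summary: plate cells (96-well), add compound at 5 concentrations, incubate 48 h, interpolate endpoints linearly. Abbreviation: GI50, concentration required for 50% inhibition of growth. At the TGI there is no net growth.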 Bounds are passed on as bounds.

Regarding `N#C/C(=C\c1ccc(Br)cc1)n1nnc2ccccc21`, the GI50 in the assay on HCT-15 colon is 0.273 µM; with UACC-62 melanoma it was 0.358 µM; in the assay with RXF 393 renal it was 427 nM; with MDA-MB-231 breast it was 1.33 µM; in the assay with MCF7 breast, 303 nM; with OVCAR-8 ovarian, 788 nM. Also, the GI50 in the assay with U251 CNS was 1100 nM; with OVCAR-3 ovarian, 244 nM; with CCRF-CEM leukemia, 0.357 µM; in the assay on SK-MEL-2 melanoma, 0.71 µM. Further, the TGI in the assay with HCT-15 colon turned out to be 3.03 µM; in the assay with UACC-62 melanoma, 1.59 µM; in the assay with RXF 393 renal, 1.94 µM; in the assay with MDA-MB-231 breast, 6.17 µM; in the assay with MCF7 breast, 6.2 µM; with OVCAR-8 ovarian, 13.6 µM. Further, the TGI in the assay with U251 CNS came out at 2.67 µM; in the assay on OVCAR-3 ovarian, 0.604 µM; in the assay on CCRF-CEM leukemia, 16.6 µM; in the assay on SK-MEL-2 melanoma it was 3.42 µM.

With `O=C(Nc1ccccc1)Nc1cccc(Oc2nnc(Cl)c3ccccc23)c1`, the GI50 was 3.54 µM with HCT-15 colon; 6.84 µM in the assay on UACC-62 melanoma; 2690 nM in the assay on RXF 393 renal; 4.76 µM with MDA-MB-231 breast; 1320 nM in the assay with MCF7 breast; 2600 nM in the assay with OVCAR-8 ovarian. The GI50 in the assay on U251 CNS is 2140 nM; in the assay with OVCAR-3 ovarian it was 2640 nM; in the assay on CCRF-CEM leukemia, 4.44 µM; with SK-MEL-2 melanoma it was 3.9 µM. Moreover, the TGI in the assay with HCT-15 colon is 12.9 µM; in the assay with UACC-62 melanoma, more than 25 µM; in the assay with RXF 393 renal, 6.24 µM; in the assay on MDA-MB-231 breast it was 12.3 µM; with MCF7 breast it was 6.32 µM; in the assay on OVCAR-8 ovarian, 6.53 µM. Further, the TGI is 5.2 µM with U251 CNS, 5.97 µM in the assay on OVCAR-3 ovarian, more than 25 µM in the assay on CCRF-CEM leukemia and 13.2 µM in the assay with SK-MEL-2 melanoma.

For `CN1CCN(c2ccc(C(=O)Nc3cc(-c4cccc(NS(=O)(=O)c5ccccc5)c4)[nH]n3)cc2)CC1`, the GI50 in the assay on HCT-15 colon was 12.3 µM; in the assay on UACC-62 melanoma, 11 µM; in the assay on RXF 393 renal, 2550 nM; with MDA-MB-231 breast it was 3.53 µM; in the assay with MCF7 breast it was 3250 nM; in the assay with OVCAR-8 ovarian, 13400 nM. In addition, the GI50 in the assay with U251 CNS is 2870 nM; in the assay with OVCAR-3 ovarian, 12700 nM; with CCRF-CEM leukemia it was 3.28 µM; in the assay on SK-MEL-2 melanoma, 6.85 µM. Also, the TGI with HCT-15 colon turned out to be 39.2 µM; in the assay on UACC-62 melanoma, 23.4 µM; in the assay on RXF 393 renal, 12.5 µM; with MDA-MB-231 breast it was 12.2 µM; in the assay on MCF7 breast, 16.9 µM; in the assay with OVCAR-8 ovarian, 32.3 µM. Also, the TGI in the assay with U251 CNS turned out to be 18.7 µM; with OVCAR-3 ovarian, 25.8 µM; with CCRF-CEM leukemia, 42.3 µM; in the assay with SK-MEL-2 melanoma, 20.2 µM.

For `CCNCCCn1c2c(c3ccc([N+](=O)[O-])cc3c1=O)C(=O)c1cc(OC)cnc1-2`, the GI50 with HCT-15 colon was 0.184 µM; in the assay with UACC-62 melanoma, 0.0267 µM; in the assay on RXF 393 renal it was 136 nM; in the assay on MDA-MB-231 breast, 0.326 µM; in the assay on MCF7 breast, 18.6 nM; in the assay on OVCAR-8 ovarian, 51.9 nM. Moreover, the GI50 in the assay on U251 CNS was 32.9 nM; with OVCAR-3 ovarian it was 61.6 nM; in the assay on CCRF-CEM leukemia, 0.0366 µM; with SK-MEL-2 melanoma it was 0.349 µM. Also, the TGI in the assay with HCT-15 colon turned out to be 1.26 µM; in the assay with UACC-62 melanoma, 0.168 µM; in the assay on RXF 393 renal it was 0.464 µM; in the assay on MDA-MB-231 breast, 1.49 µM; with MCF7 breast it was 1.37 µM; in the assay on OVCAR-8 ovarian it was 0.479 µM. In addition, the TGI with U251 CNS came to 0.186 µM; with OVCAR-3 ovarian, 0.302 µM; with CCRF-CEM leukemia, 1.23 µM; in the assay on SK-MEL-2 melanoma, 1.9 µM.

On to `COc1ccc(/C=C/NC=O)cc1`, for which the TGI with HCT-15 colon, in the assay on UACC-62 melanoma, in the assay with RXF 393 renal, with MDA-MB-231 breast, with MCF7 breast and in the assay on OVCAR-8 ovarian was more than 100 µM throughout. The TGI with U251 CNS, in the assay on OVCAR-3 ovarian, in the assay on CCRF-CEM leukemia and in the assay on SK-MEL-2 melanoma was more than 100 µM each time.

For the compound `COc1ccc(-c2cc(=O)c3c(OC)c(OC)c(OC)c(OC)c3o2)c(OC)c1`, the TGI in the assay on HCT-15 colon is 86.1 µM; in the assay with UACC-62 melanoma it was 33 µM; with RXF 393 renal, 99.7 µM; in the assay on MDA-MB-231 breast it was more than 100 µM; in the assay on MCF7 breast, 44 µM; in the assay on OVCAR-8 ovarian it was more than 100 µM. Also, the TGI with U251 CNS is more than 100 µM; in the assay with OVCAR-3 ovarian it was 53.7 µM; in the assay on CCRF-CEM leukemia, more than 100 µM; in the assay on SK-MEL-2 melanoma, 39.2 µM.

Consider `Cc1cc(N(CCCl)CCCl)ccc1/C=N/NC(=O)Cc1cc(=O)oc2cc(O)ccc12`, for which the TGI in the assay with HCT-15 colon was more than 100 µM; in the assay on UACC-62 melanoma, 13.2 µM; in the assay on RXF 393 renal it was 44.3 µM; in the assay with MDA-MB-231 breast, 86.8 µM; with MCF7 breast, 20.4 µM; in the assay on OVCAR-8 ovarian it was more than 100 µM. In addition, the TGI is 43.4 µM in the assay with U251 CNS, 72.8 µM with OVCAR-3 ovarian, 46 µM in the assay on CCRF-CEM leukemia and more than 100 µM in the assay on SK-MEL-2 melanoma.

`C=CC1=C(C)C2=NC1=CC1=NC(=CC3=C(C)C4=C(O)C(C(=O)OC)C(=C5NC(=C2)C(C)C5CCC(=O)OC)C4=N3)C(CC)=C1C` (stereo not given): the TGI with HCT-15 colon, with UACC-62 melanoma, in the assay with RXF 393 renal, with MDA-MB-231 breast, in the assay with MCF7 breast and in the assay with OVCAR-8 ovarian was more than 100 µM each time. The TGI in the assay with U251 CNS, in the assay on OVCAR-3 ovarian, in the assay with CCRF-CEM leukemia and with SK-MEL-2 melanoma was more than 100 µM throughout.

For the compound `COc1ccc(N(/C=C/C(=O)C(F)(F)F)CC(=O)c2ccc(Cl)c(Cl)c2)cc1`, the GI50 with HCT-15 colon was 7.66 µM; in the assay on UACC-62 melanoma, 8.75 µM; with RXF 393 renal, 36300 nM; in the assay on MDA-MB-231 breast, 14.4 µM; in the assay on MCF7 breast, 5110 nM; in the assay on OVCAR-8 ovarian, 13200 nM. The GI50 with U251 CNS was 12200 nM; in the assay on OVCAR-3 ovarian, 15600 nM; with CCRF-CEM leukemia, 3.39 µM; in the assay on SK-MEL-2 melanoma it was 19.6 µM. Moreover, the TGI in the assay with HCT-15 colon is 21.4 µM; with UACC-62 melanoma, 22.8 µM; in the assay with RXF 393 renal it was more than 100 µM; in the assay with MDA-MB-231 breast it was 38.6 µM; in the assay on MCF7 breast, 28.9 µM; in the assay with OVCAR-8 ovarian it was 36.6 µM. Besides, the TGI came to 25.3 µM in the assay with U251 CNS, 29.3 µM with OVCAR-3 ovarian, 18.3 µM in the assay with CCRF-CEM leukemia and 44 µM in the assay on SK-MEL-2 melanoma.
